What was measured:
myrosinase = assay: Equimolar conversion of glucoraphanin to sulforaphane by myrosinase, HPLC (Example 4); assay type: biochemical, broccoli
Protocol: A two-part experiment was conducted to further elucidate the role of ascorbic acid in modulating myrosinase activity. All solutions were prepared in 20 mM Tris-buffered saline, at pH 7.5, previously identified as an optimal for myrosinase activity; each sample tube had 100 mg of freeze-dried broccoli powder accurately weighed in as a source of myrosinase. Experiment was conducted at 38° C. for 2 hours, with sample aliquots removed in 30-minute increments, and both glucoraphanin and sulforaphane content assessed by HPLC. […] A control sample contained no ascorbic acid, and the enzymatic conversion proceeded unassisted by a co-factor. PART 1. In the presence of the fixed concentration of ascorbic acid, 1 mmol/Liter, an increasing amount of broccoli seed extract (about 12% glucoraphanin, w/w) was added, ranging from 250 mg to 500 mg. PART 2. While keeping the amount of broccoli seed extract fixed at 250 mg, the concentration of ascorbic acid was varied from 0.4 mmol/Liter to 3.8 mmol/Liter.

[1] = test system: broccoli sprout-derived myrosinase; assay: Consumption of glucoraphanin by myrosinase as a function of ascorbic acid concentration (Example 3); assay type: biochemical
Protocol: A […] Interaction Chromatographic (HILIC) method was developed, comprising the following conditions: • Column: Waters BEH Amide, 1.7-μm particle size; 2.1 mm×100 mm; • Mobile Phase: 20% 10 mM Ammonium Acetate, pH 5.0; 80% acetonitrile; • Separation mode: isocratic; • Column Temperature: 70° C.; • Flow Rate: 0.7 mL/min.
About 250 mg of broccoli seed extract containing about 12% (w/w) glucoraphanin were subjected to hydrolysis by a fixed concentration of broccoli sprout-derived myrosinase in the presence of variable concentration of ascorbic acid, ranging from 0 to 600 μmoles/Liter. The reaction mixtures were thermostated at 38° C.; aliquots were withdrawn every 15 minutes for 60 minutes, and concentration of glucoraphanin determined chromatographically. The rate of glucoraphanin consumption was interpreted as the rate its conversion to sulforaphane. Graphical representation of glucoraphanin content reduction as a function of increasing ascorbic acid concentration results in a series of linear plots; the slopes of the linear regression lines reflect the rate of glucoraphanin consumption, in pmoles/minute. It is apparent that in the presence of 600 μmoles/Liter concentration of ascorbic acid, the reaction rate increased 13-fold relative to that which proceeded in the absence of modulatory effects of ascorbic acid.

[2] = GR 250 mg AA 0.0 mM (control), 0 min
[3] = GR 250 mg AA 0.0 mM (control), 30 min
[4] = GR 250 mg AA 0.0 mM (control), 60 min
[5] = GR 250 mg AA 0.0 mM (control), 90 min
[6] = GR 250 mg AA 0.0 mM (control), 120 min
[7] = PART 1, GR 250 mg AA 1.0 mM, 0 min
[8] = PART 2, GR 250 mg AA 1.0 mM, 0 min

Glucoraphanin (myrosinase; [2]): 58.02 µmol
Sulforaphane (myrosinase; [2]): 3.42 µmol
Glucoraphanin (myrosinase; [3]): 48.57 µmol
Sulforaphane (myrosinase; [3]): 12.08 µmol
Glucoraphanin (myrosinase; [4]): 37.52 µmol
Sulforaphane (myrosinase; [4]): 22.27 µmol
Glucoraphanin (myrosinase; [5]): 28.58 µmol
Sulforaphane (myrosinase; [5]): 33.17 µmol
Glucoraphanin (myrosinase; [6]): 15.67 µmol
Sulforaphane (myrosinase; [6]): 42.89 µmol
Glucoraphanin (myrosinase; GR 250 mg AA 0.4 mM, 0 min): 45.66 µmol
Sulforaphane (myrosinase; GR 250 mg AA 0.4 mM, 0 min): 15.96 µmol
Sulforaphane (myrosinase; GR 250 mg AA 0.4 mM, 30 min): 62.06 µmol
Sulforaphane (myrosinase; GR 250 mg AA 0.4 mM, 60 min): 61.01 µmol
Sulforaphane (myrosinase; GR 250 mg AA 0.4 mM, 90 min): 60.88 µmol
Sulforaphane (myrosinase; GR 250 mg AA 0.4 mM, 120 min): 56.90 µmol
Glucoraphanin (myrosinase; GR 250 mg AA 2.0 mM, 0 min): 24.94 µmol
Sulforaphane (myrosinase; GR 250 mg AA 2.0 mM, 0 min): 36.05 µmol
Sulforaphane (myrosinase; GR 250 mg AA 2.0 mM, 30 min): 60.85 µmol
Sulforaphane (myrosinase; GR 250 mg AA 2.0 mM, 60 min): 59.78 µmol
Sulforaphane (myrosinase; GR 250 mg AA 2.0 mM, 90 min): 59.85 µmol
Sulforaphane (myrosinase; GR 250 mg AA 2.0 mM, 120 min): 58.08 µmol
Glucoraphanin (myrosinase; GR 250 mg AA 2.9 mM, 0 min): 22.24 µmol
Sulforaphane (myrosinase; GR 250 mg AA 2.9 mM, 0 min): 38.20 µmol
Sulforaphane (myrosinase; GR 250 mg AA 2.9 mM, 30 min): 59.95 µmol
Sulforaphane (myrosinase; GR 250 mg AA 2.9 mM, 60 min): 59.34 µmol
Sulforaphane (myrosinase; GR 250 mg AA 2.9 mM, 90 min): 58.77 µmol
Sulforaphane (myrosinase; GR 250 mg AA 2.9 mM, 120 min): 56.99 µmol
Glucoraphanin (myrosinase; GR 250 mg AA 3.8 mM, 0 min): 21.70 µmol
Sulforaphane (myrosinase; GR 250 mg AA 3.8 mM, 0 min): 37.87 µmol
Sulforaphane (myrosinase; GR 250 mg AA 3.8 mM, 30 min): 58.77 µmol
Sulforaphane (myrosinase; GR 250 mg AA 3.8 mM, 60 min): 57.79 µmol
Sulforaphane (myrosinase; GR 250 mg AA 3.8 mM, 90 min): 58.41 µmol
Sulforaphane (myrosinase; GR 250 mg AA 3.8 mM, 120 min): 56.17 µmol
Glucoraphanin (myrosinase; GR 300 mg AA 1.0 mM, 0 min): 49.31 µmol
Sulforaphane (myrosinase; GR 300 mg AA 1.0 mM, 0 min): 24.18 µmol
Sulforaphane (myrosinase; GR 300 mg AA 1.0 mM, 30 min): 74.40 µmol
Sulforaphane (myrosinase; GR 300 mg AA 1.0 mM, 60 min): 73.04 µmol
Sulforaphane (myrosinase; GR 300 mg AA 1.0 mM, 90 min): 72.19 µmol
Sulforaphane (myrosinase; GR 300 mg AA 1.0 mM, 120 min): 70.56 µmol
Glucoraphanin (myrosinase; GR 350 mg AA 1.0 mM, 0 min): 61.41 µmol
Sulforaphane (myrosinase; GR 350 mg AA 1.0 mM, 0 min): 25.00 µmol
Sulforaphane (myrosinase; GR 350 mg AA 1.0 mM, 30 min): 84.92 µmol
Sulforaphane (myrosinase; GR 350 mg AA 1.0 mM, 60 min): 84.02 µmol
Sulforaphane (myrosinase; GR 350 mg AA 1.0 mM, 90 min): 83.19 µmol
Sulforaphane (myrosinase; GR 350 mg AA 1.0 mM, 120 min): 80.02 µmol
Glucoraphanin (myrosinase; GR 400 mg AA 1.0 mM, 0 min): 71.35 µmol
Sulforaphane (myrosinase; GR 400 mg AA 1.0 mM, 0 min): 26.71 µmol
Glucoraphanin (myrosinase; GR 400 mg AA 1.0 mM, 30 min): 1.56 µmol
Sulforaphane (myrosinase; GR 400 mg AA 1.0 mM, 30 min): 96.60 µmol
Sulforaphane (myrosinase; GR 400 mg AA 1.0 mM, 60 min): 95.38 µmol
Sulforaphane (myrosinase; GR 400 mg AA 1.0 mM, 90 min): 93.39 µmol
Sulforaphane (myrosinase; GR 400 mg AA 1.0 mM, 120 min): 91.16 µmol
Glucoraphanin (myrosinase; GR 500 mg AA 1.0 mM, 0 min): 89.41 µmol
Sulforaphane (myrosinase; GR 500 mg AA 1.0 mM, 0 min): 33.52 µmol
Glucoraphanin (myrosinase; GR 500 mg AA 1.0 mM, 30 min): 1.01 µmol
Sulforaphane (myrosinase; GR 500 mg AA 1.0 mM, 30 min): 120.16 µmol
Sulforaphane (myrosinase; GR 500 mg AA 1.0 mM, 60 min): 116.45 µmol
Sulforaphane (myrosinase; GR 500 mg AA 1.0 mM, 90 min): 118.45 µmol
Sulforaphane (myrosinase; GR 500 mg AA 1.0 mM, 120 min): 112.34 µmol
Glucoraphanin (myrosinase; [7]): 40.07 µmol
Sulforaphane (myrosinase; [7]): 21.51 µmol
Sulforaphane (myrosinase; PART 1, GR 250 mg AA 1.0 mM, 30 min): 61.95 µmol
Sulforaphane (myrosinase; PART 1, GR 250 mg AA 1.0 mM, 60 min): 60.20 µmol
Sulforaphane (myrosinase; PART 1, GR 250 mg AA 1.0 mM, 90 min): 60.04 µmol
Sulforaphane (myrosinase; PART 1, GR 250 mg AA 1.0 mM, 120 min): 58.25 µmol
Glucoraphanin (myrosinase; [8]): 35.24 µmol
Sulforaphane (myrosinase; [8]): 26.49 µmol
Sulforaphane (myrosinase; PART 2, GR 250 mg AA 1.0 mM, 30 min): 62.19 µmol
Sulforaphane (myrosinase; PART 2, GR 250 mg AA 1.0 mM, 60 min): 60.62 µmol
Sulforaphane (myrosinase; PART 2, GR 250 mg AA 1.0 mM, 90 min): 60.41 µmol
Sulforaphane (myrosinase; PART 2, GR 250 mg AA 1.0 mM, 120 min): 59.10 µmol
time to complete conversion of glucoraphanin to sulforaphane (myrosinase; almost all the reaction mixtures): ≤ 30 min
SMILES: C[S+]([O-])CCCC/C(=N\OS(=O)(=O)O)S[C@@H]1O[C@H](CO)[C@@H](O)[C@H](O)[C@H]1O (some centres unmarked) [GR, 4-methylsulfinylbutyl glucosinolate]
stoichiometry of conversion of glucoraphanin to sulforaphane (myrosinase; control sample, without ascorbic acid): equimolar conversion of glucoraphanin to sulforaphane
Slope (rate of glucoraphanin consumption) ([1]; ascorbic acid 0 μM): -0.09293 µmol/min
Glucoraphanin content (μmoles GR) ([1]; ascorbic acid 0 μM, 0 min): 93.36 µmol
Glucoraphanin content (μmoles GR) ([1]; ascorbic acid 0 μM, 15 min): 92.24 µmol
Glucoraphanin content (μmoles GR) ([1]; ascorbic acid 0 μM, 30 min): 90.71 µmol
Glucoraphanin content (μmoles GR) ([1]; ascorbic acid 0 μM, 45 min): 89.44 µmol
Glucoraphanin content (μmoles GR) ([1]; ascorbic acid 0 μM, 60 min): 87.79 µmol
Slope (rate of glucoraphanin consumption) ([1]; ascorbic acid 50 μM): -0.286 µmol/min
Glucoraphanin content (μmoles GR) ([1]; ascorbic acid 50 μM, 0 min): 93.36 µmol
Glucoraphanin content (μmoles GR) ([1]; ascorbic acid 50 μM, 15 min): 89.20 µmol
Glucoraphanin content (μmoles GR) ([1]; ascorbic acid 50 μM, 30 min): 84.24 µmol
Glucoraphanin content (μmoles GR) ([1]; ascorbic acid 50 μM, 45 min): 80.30 µmol
Glucoraphanin content (μmoles GR) ([1]; ascorbic acid 50 μM, 60 min): 76.36 µmol
Slope (rate of glucoraphanin consumption) ([1]; ascorbic acid 125 μM): -0.5622 µmol/min
Glucoraphanin content (μmoles GR) ([1]; ascorbic acid 125 μM, 0 min): 93.36 µmol
Glucoraphanin content (μmoles GR) ([1]; ascorbic acid 125 μM, 15 min): 84.52 µmol
Glucoraphanin content (μmoles GR) ([1]; ascorbic acid 125 μM, 30 min): 75.92 µmol
Glucoraphanin content (μmoles GR) ([1]; ascorbic acid 125 μM, 45 min): 68.09 µmol
Glucoraphanin content (μmoles GR) ([1]; ascorbic acid 125 μM, 60 min): 59.41 µmol
Slope (rate of glucoraphanin consumption) ([1]; ascorbic acid 250 μM): -0.7901 µmol/min
Slope (rate of glucoraphanin consumption) ([1]; ascorbic acid 250 μM Filtered): -0.4714 µmol/min
Glucoraphanin content (μmoles GR) ([1]; ascorbic acid 250 μM Filtered, 0 min): 93.36 µmol
Glucoraphanin content (μmoles GR) ([1]; ascorbic acid 250 μM Filtered, 15 min): 86.31 µmol
Glucoraphanin content (μmoles GR) ([1]; ascorbic acid 250 μM Filtered, 30 min): 79.44 µmol
Glucoraphanin content (μmoles GR) ([1]; ascorbic acid 250 μM Filtered, 45 min): 71.94 µmol
Glucoraphanin content (μmoles GR) ([1]; ascorbic acid 250 μM Filtered, 60 min): 65.18 µmol
Glucoraphanin content (μmoles GR) ([1]; ascorbic acid 250 μM, 0 min): 93.36 µmol
Glucoraphanin content (μmoles GR) ([1]; ascorbic acid 250 μM, 15 min): 80.95 µmol
Glucoraphanin content (μmoles GR) ([1]; ascorbic acid 250 μM, 30 min): 69.06 µmol
Glucoraphanin content (μmoles GR) ([1]; ascorbic acid 250 μM, 45 min): 57.63 µmol
Glucoraphanin content (μmoles GR) ([1]; ascorbic acid 250 μM, 60 min): 45.76 µmol
Slope (rate of glucoraphanin consumption) ([1]; ascorbic acid 400 μM): -1.007 µmol/min
Glucoraphanin content (μmoles GR) ([1]; ascorbic acid 400 μM, 0 min): 93.36 µmol
Glucoraphanin content (μmoles GR) ([1]; ascorbic acid 400 μM, 15 min): 78.32 µmol
Glucoraphanin content (μmoles GR) ([1]; ascorbic acid 400 μM, 30 min): 62.78 µmol
Glucoraphanin content (μmoles GR) ([1]; ascorbic acid 400 μM, 45 min): 47.67 µmol
Glucoraphanin content (μmoles GR) ([1]; ascorbic acid 400 μM, 60 min): 33.15 µmol
Slope (rate of glucoraphanin consumption) ([1]; ascorbic acid 600 μM): -1.2 µmol/min
Glucoraphanin content (μmoles GR) ([1]; ascorbic acid 600 μM, 0 min): 93.36 µmol
Glucoraphanin content (μmoles GR) ([1]; ascorbic acid 600 μM, 15 min): 75.02 µmol
Glucoraphanin content (μmoles GR) ([1]; ascorbic acid 600 μM, 30 min): 55.66 µmol
Glucoraphanin content (μmoles GR) ([1]; ascorbic acid 600 μM, 45 min): 37.50 µmol
Glucoraphanin content (μmoles GR) ([1]; ascorbic acid 600 μM, 60 min): 22.09 µmol
